{
  "source": "patent US9005649B2",
  "about": "“Methods for making controlled delivery devices having zero order kinetics” (Board of Regents, the University of Texas System, priority 2009, dated 2015)",
  "key": {"[1]": {"details": "intravenous, AIDS patients with CMV retinitis; cited from earlier work"}, "[2]": {"details": "continuous release for seven days, glaucoma; cited from earlier work"}, "[3]": {"test": "Release of crystal violet from single outlet port devices of 200, 400 and 600 microns inside diameter (incubator, UV-Vis)", "type": "physicochemical", "details": "one outlet port devices, 200, 400, 600 microns inside diameter, 3.0 ml PBS pH 7.37, 37° C., 7 days", "procedure": "Drug delivery devices were made having one outlet port and one sealed end. […] Three different variation of devices were prepared with different inside diameters, as in 200, 400, and 600 microns. Four devices of each type were subjected to release studies as described in Example I. Single passageway tubes were placed in micro vials containing 3.0 ml of phosphate buffered saline (0.01 M phosphate, pH 7.37). The vials were placed in an incubator maintained at 37° C. for the entire duration of study. The buffer was changed every 24 hours, sampled, and analyzed for the amount of crystal violet released using a UV-Vis Spectrophotometer for seven (7) days."}, "[4]": {"test": "Release of crystal violet from impermeable polyimide tube delivery devices into phosphate buffered saline (USP Disintegration Apparatus, UV-Vis)", "type": "physicochemical", "details": "single outlet port device"}, "[5]": {"test": "Release of crystal violet from impermeable polyimide tube delivery devices into phosphate buffered saline (USP Disintegration Apparatus, UV-Vis)", "type": "physicochemical", "details": "for linearity of release: 28 days; for total duration of release, percentage release extrapolated to 100%: PBS pH 7.37, 37° C., 28 days data", "procedure": "Lengths of polyimide tubes were provided having a length of 20 mm and a diameter of 125 microns. At the centre of each tube, a passageway with a diameter of 30 microns was made using standard chemical procedures.\nSeven (7) tubes having the optimal passageways were selected and loaded with a concentrated solution of crystal violet in ethanol by capillary method. The tubes were then allowed to stand for 24 hours at room temperature to evaporate alcohol from the tubes, such that the tube is tightly packed with a solid crystal violet composition.\nAfter taking an initial weight measurement, an average amount of 126 micrograms of crystal violet was estimated inside the tubes. The ends of the tubes were sealed with a bioglue and dried.\nSingle passageway tubes made according to Example I were placed in microvials containing 0.26 ml of phosphate buffered saline (0.01 M phosphate, pH 7.37). The vials were placed in a USP Disintegration Apparatus having dip rate of 30-32 dips per minute. The apparatus was connected to a waterbath maintained at 37° C. for the entire duration of study. The buffer was changed every 48 hours, sampled, and analyzed for the amount of crystal violet released using a UV-Vis Spectrophotometer for 28 days.\nSeveral drug delivery devices were constructed in accordance with in Example I except that two passageways were made located equidistant from the tube centre. The optimal seven (7) were selected and loaded with crystal violet in accordance with Example I.\nSeveral drug delivery devices were constructed in accordance with Example I except that three passageways were made located equidistant from each end of the tube. The optimal seven (7) were selected and loaded with crystal violet in accordance with Example I.\nSeven (7) lengths of polyimide tubes were provided having a length of 20 mm and a diameter of 125 microns. The tubes were then loaded with a concentrated solution of crystal violet in ethanol by capillary method. The tubes were then allowed to stand for 24 hours at room temperature to evaporate alcohol from the tubes, such that the tube is tightly packed with a solid crystal violet composition. One end of the tube was sealed with a bioglue while the other end was left open.\nA drug delivery device made in accordance with Example VIII was subjected to release studies as described in Example II. […] The percentage release when extrapolated to 100% corresponds to the total duration of release of approximately 2 years."}},
  "data": [
    {"compound": "Nc1nc(O)c2ncn(COC(CO)CO)c2n1", "note": "[Ganciclovir]", "values": [
      {"measurement": "patients experiencing bone marrow toxicity resulting in neutropenia (neutrophil count <1000)", "setting": "[1]", "value": "30-50%"}
    ]},
    {"compound": "CC[C@@H]1C(=O)OC[C@@H]1Cc1cncn1C", "note": "[pilocarpine]", "values": [
      {"measurement": "release rate from ocular insert", "setting": "[2]", "value": "20 to 40", "unit": "µg/h"}
    ]},
    {"compound": "CN(C)c1ccc(C(=C2C=CC(=[N+](C)C)C=C2)c2ccc(N(C)C)cc2)cc1", "note": "[crystal violet]", "values": [
      {"measurement": "linearity of release", "setting": "[3]", "value": "significant linearity of release"},
      {"measurement": "linearity of release", "setting": "[4]; 5 days", "value": "significant linearity of release"},
      {"measurement": "total duration of release, percentage release extrapolated to 100%", "setting": "[4]; no surface passageways, one open end, 5 days data", "value": "approximately 2 years"},
      {"measurement": "amount released relative to single passageway device", "setting": "[5]; double passageway device", "value": "two-fold"},
      {"measurement": "linearity of release", "setting": "[5]; double passageway device", "value": "significant linear agent release"},
      {"measurement": "total duration of release, percentage release extrapolated to 100%", "setting": "[5]; double passageway device", "value": "approximately 22 years"},
      {"measurement": "total duration of release, percentage release extrapolated to 100%", "setting": "[5]; single passageway device (30 micron passageway, 20 mm x 125 micron tube)", "value": "approximately 43 years"},
      {"measurement": "linearity of release", "setting": "[5]; single passageway device", "value": "significant linearity of release"},
      {"measurement": "amount released relative to single passageway device", "setting": "[5]; triple passageway device", "value": "three-fold"},
      {"measurement": "linearity of release", "setting": "[5]; triple passageway device", "value": "significant linear agent release"},
      {"measurement": "total duration of release, percentage release extrapolated to 100%", "setting": "[5]; triple passageway device", "value": "approximately 15 years"}
    ]}
  ]
}
